From patent US20230364032A1, “USE OF 2-HOBA TO TREAT ATHEROSCLEROSIS” (Vanderbilt University, priority 2020, published 2023) come the findings set out here.

One assay deals with F2-IsoP. The assay can be described thus: Urine F2-isoprostane levels (LC/MS/MS). Type of assay: in vivo, mouse. The note with it: Ldlr−/− mice, western diet 16 weeks, 1 g/L; vehicle, 4-HOBA, 2-HOBA compared. On the procedure:
The urine F2-IsoP levels were measured by LC/MS/MS) from Ldlr^−/− mice consuming a western diet for 16 weeks and treated with 1 g/L 2-HOBA, 4-HOBA, or vehicle. N=5 or 6 per group, p=0.43, Kruskal-Wallis test. Urinary creatinine levels were measured for normalization.

Another assay has as its system MDA-apoAI. The assay can be described thus: Plasma MDA-apoAI by immunoprecipitation and western blotting. Type of assay: in vivo, mouse. On the procedure:
FIGS. 7A-7G show the effects of 2-HOBA on MDA-HDL adducts and HDL function. (7A) The levels or MDA adducts were measured by ELISA in HDL isolated from Ldlr mice treated as described in FIG. 1. Data are presented as mean±SEM (N=8 pet group), *** p<0.001, One-way ANOVA with Bonferroni's post hoc test. (7B) Western blots of apoAl and MDA-apoAl in HDL isolated from plasma by immunoprecipitation using primary anti-apoAl antibody. Ldlf mice were treated as described In FIG. 1 and apoAl and MDA-apoAl from Ldlr mice consuming a chow diet are included f0t comparison. (7C) Quantitation using lmageJ software of the mean density ratio (arbitrary units) of MDA-apoAl to apoAl detected by Western blotting (7B). […]
The study was approved by the Vanderbilt University Institutional Review Board (IRB), and all participants gave their written informed consent. […] After stopping the reaction, the O.D. was measured at 450 nm wavelength. MDA-ApoAI was detected in mouse plasma by immunoprecipitation of ApoAI and western blotting. […] Proteins were visualized and quantitated by Odyssey 3.0 Quantification software (LI-COR).

The test system of a further assay is MDA. Description: HOBA-MDA adducts in macrophages incubated with ox-LDL (LC-MS/MS). Format: cell-based, mouse. The following applies: 24 h; for HOBA-MDA (propenal-HOBA) adducts in macrophages: macrophages treated with oxidized LDL, 2-HOBA versus 4-HOBA. On the procedure: Peritoneal macrophages were isolated from C57BL/6J mice and incubated with 50 μg/mL ox-LDL, and treated with either 250 μm 2-HOBA or 4-HOBA (18A), or 5 μm of 2-HOBA or 4-HOBA (18B, 18C, 18D) for 24 h. Cell samples were collected and the HOBA-MDA adducts were measured using LC-MS/MS as described in supplemental methods. * p<0.05, One-way ANOVA with Bonferroni's post hoc test.
The scavenger-MDA adducts were extracted, (1) from homogenate of tissue (equivalent of 30 mg) or (2) from cells (1 ml), three times with 500 μl of ethyl acetate. The extract was dried down, resuspended in 100 μl of ACN-water (1:1, v/v with 0.1% formic acid), vortexed, and filtered through a 0.22 μm spin X column. The reactions were analyzed by LC-EST/MS/MS using the column a Phenomenex Kinetex column at a flow rate of 0.1 ml/min. The gradient consisted of Solvent A, water with 0.2% formic acid and solvent B, acetonitrile with 0.2% formic acid. The gradient was as follows: 0-2 min 99.9% A, 2-9 min 99.9-0.1% A, 9-12 min 99.9% B. The mass spectrometer was operated in the positive ion mode, and the spray voltage was maintained at 5,000 V. Nitrogen was used for the sheath gas and auxiliary gas at pressures of 30 and 5 arbitrary units, respectively. The optimized skimmer offset was set at 10, capillary temperature was 300° C., and the tube lens voltage was specific for each compound. SRM of specific transition ions for the precursor ions at m/z 178→107 (propenal-HOBA adduct).

Another assay has as its system Phospho-Akt (S473). Description: Akt signaling in macrophages (phospho-Akt Western blot). The following applies: 250 μM, 1 hour; absence and presence of insulin; vehicle, 4-HOBA, 2-HOBA compared. Type of assay: cell-based, mouse. On the procedure: WT macrophages were treated with or without vehicle (water), 250 μM 4-HOBA or 2-HOBA for 1 hour, and then incubated with or without 100 nM insulin as indicated for 15 min. Phospho-Akt (S473) and GAPDH were detected by Western Blotting (19A). The band density was quantitated by ImageJ software (19B). Two independent experiments were performed.

Entries after “also recorded” stand apart in the source; their conditions may differ.

On to `NCc1ccccc1O` [2-HOBA, 2-hydroxybenzylamine], for which, in the assay on F2-IsoP, the “urine F2-IsoP levels” value is recorded as “not significantly different; also recorded: does not impact”. Further, in the assay with MDA-apoAI (Ldlr−/− mice consuming a western diet), the “plasma MDA-apoAI adducts” value is “inhibited; also recorded: dramatically reduced”. In addition, the “propenal-2-HOBA, DHP-MDA-2-HOBA and crosslinked MDA-2-HOBA adducts in cells” value in the assay with MDA (cells incubated with 5 μM, ox-LDL) is given as “significant levels of propenal-2-HOBA were formed”. Moreover, the “HOBA-MDA (propenal-HOBA) adducts in macrophages” value in the assay with MDA was “increased; also recorded: readily detected; also recorded: formation of 2-HOBA-MDA adducts”. Also, the “pAKT levels in macrophages” value in the assay on Phospho-Akt (S473) is “no difference; also recorded: does not influence”.

As for `NCc1ccc(O)cc1` [4-HOBA, 4-hydroxybenzylamine, reference compound], the “urine F2-IsoP levels” value in the assay on F2-IsoP is “not different”. The “plasma levels of MDA-apoAI compared to Ldlr−/− mice consuming a chow diet” value in the assay on MDA-apoAI (after 16 weeks on the western-type diet) is “markedly increased”. In addition, the “HOBA-MDA (propenal-HOBA) adducts in macrophages” value with MDA was “undetectable”. In addition, the “pAKT levels in macrophages” value in the assay with Phospho-Akt (S473) is given as “no difference”.
